# Measured values taken from ChEMBL document CHEMBL4507318, “Data for DCP probe BAY-985” (2021).
# Key:
# [1] = target: Casein kinase I isoform gamma-3 (Homo sapiens) (UniProt Q9Y6M4)
# [2] = tested on: Epidermal growth factor receptor (Homo sapiens), P00533 [UNDEFINED MUTATION]
# [3] = target: Microtubule-associated serine/threonine-protein kinase 1 (Homo sapiens) (UniProt Q9Y2H9)
# [4] = target: Ephrin type-A receptor 2 (Homo sapiens) (UniProt P29317)
# [5] = target: Serine/threonine-protein kinase 32B (Homo sapiens) (UniProt Q9NY57)
# [6] = target: Serine/threonine-protein kinase Nek6 (Homo sapiens) (UniProt Q9HC98)
# [7] = target: Ribosomal protein S6 kinase alpha-1 (Homo sapiens) (UniProt Q15418)
# [8] = target: Serine/threonine-protein kinase WNK4 (Homo sapiens) (UniProt Q96J92)
# [9] = target: Rhodopsin kinase GRK1 (Homo sapiens) (UniProt Q15835)
# [10] = target: Mitogen-activated protein kinase 4 (Homo sapiens) (UniProt P31152)
# [11] = target: Casein kinase I isoform alpha-like (Homo sapiens) (UniProt Q8N752)
# [12] = target: Ephrin type-B receptor 2 (Homo sapiens) (UniProt P29323)
# [13] = target: Death-associated protein kinase 1 (Homo sapiens) (UniProt P53355)
# [14] = target: Cyclin-dependent kinase 2 homolog (Plasmodium falciparum (isolate 3D7)) (UniProt P61075)
# [15] = target: Serine/threonine-protein kinase Sgk2 (Homo sapiens) (UniProt Q9HBY8)
# [16] = target: Peripheral plasma membrane protein CASK (Homo sapiens) (UniProt O14936)
# [17] = target: Beta-3 adrenergic receptor (Homo sapiens) (UniProt P13945); settings: Compound concentration 10.0 uM
# [18] = target: Serine/threonine-protein kinase 26 (Homo sapiens) (UniProt Q9P289)
# [19] = target: Dual specificity mitogen-activated protein kinase kinase 2 (Homo sapiens) (UniProt P36507)
# [20] = target: Tyrosine-protein kinase receptor Tie-1 (Homo sapiens) (UniProt P35590)
# [21] = target: Casein kinase I isoform gamma-2 (Homo sapiens) (UniProt P78368)
# [22] = target: Serine/threonine-protein kinase MRCK beta (Homo sapiens) (UniProt Q9Y5S2)
# [23] = target: Activin receptor type-1 (Homo sapiens) (UniProt Q04771)
# [24] = target: Platelet-derived growth factor receptor alpha (Homo sapiens) (UniProt P16234)
# [25] = target: Ribosomal protein S6 kinase alpha-1 (Homo sapiens) (UniProt Q15418); remark: listed apart in the source
# [26] = target: STE20-like serine/threonine-protein kinase (Homo sapiens) (UniProt Q9H2G2)
# [27] = target: Serine/threonine-protein kinase PAK 4 (Homo sapiens) (UniProt O96013)
# [28] = target: Serine/threonine-protein kinase 24 (Homo sapiens) (UniProt Q9Y6E0)
# [29] = target: D(3) dopamine receptor (Homo sapiens) (UniProt P35462); settings: Compound concentration 10.0 uM
# [30] = target: Tyrosine-protein kinase JAK1 (Homo sapiens) (UniProt P23458)
# [31] = target: Inhibitor of nuclear factor kappa-B kinase subunit beta (Homo sapiens) (UniProt O14920)
# [32] = tested on: Tyrosine-protein kinase ABL1 (Homo sapiens), P00519 [E255K]
# [33] = target: Serine/threonine-protein kinase WNK3 (Homo sapiens) (UniProt Q9BYP7)
# [34] = tested on: Epidermal growth factor receptor (Homo sapiens), P00533 [T790M]
# [35] = target: Serine/threonine-protein kinase 38 (Homo sapiens) (UniProt Q15208)
# [36] = target: Serine/threonine-protein kinase 33 (Homo sapiens) (UniProt Q9BYT3)
# [37] = target: Calcium/calmodulin-dependent protein kinase type II subunit delta (Homo sapiens) (UniProt Q13557)
# [38] = target: Serine/threonine-protein kinase TBK1 (Homo sapiens) (UniProt Q9UHD2)
# [39] = target: Tyrosine-protein kinase TXK (Homo sapiens) (UniProt P42681)
# [40] = target: NT-3 growth factor receptor (Homo sapiens) (UniProt Q16288)
# [41] = target: Mitogen-activated protein kinase 15 (Homo sapiens) (UniProt Q8TD08)
# [42] = tested on: Receptor-type tyrosine-protein kinase FLT3 (Homo sapiens), P36888 [K663Q]
# [43] = target: Cyclin-dependent kinase-like 2 (Homo sapiens) (UniProt Q92772)
# [44] = tested on: Receptor-type tyrosine-protein kinase FLT3 (Homo sapiens), P36888 [N841I]
# [45] = tested on: Mast/stem cell growth factor receptor Kit (Homo sapiens), P10721 [V559D,V654A]
# [46] = Compound concentration 1000.0 nM
# [47] = Compound concentration 100.0 nM
# Chain of Ribosomal protein S6 kinase alpha-1 (Homo sapiens) (Q15418 whole entry): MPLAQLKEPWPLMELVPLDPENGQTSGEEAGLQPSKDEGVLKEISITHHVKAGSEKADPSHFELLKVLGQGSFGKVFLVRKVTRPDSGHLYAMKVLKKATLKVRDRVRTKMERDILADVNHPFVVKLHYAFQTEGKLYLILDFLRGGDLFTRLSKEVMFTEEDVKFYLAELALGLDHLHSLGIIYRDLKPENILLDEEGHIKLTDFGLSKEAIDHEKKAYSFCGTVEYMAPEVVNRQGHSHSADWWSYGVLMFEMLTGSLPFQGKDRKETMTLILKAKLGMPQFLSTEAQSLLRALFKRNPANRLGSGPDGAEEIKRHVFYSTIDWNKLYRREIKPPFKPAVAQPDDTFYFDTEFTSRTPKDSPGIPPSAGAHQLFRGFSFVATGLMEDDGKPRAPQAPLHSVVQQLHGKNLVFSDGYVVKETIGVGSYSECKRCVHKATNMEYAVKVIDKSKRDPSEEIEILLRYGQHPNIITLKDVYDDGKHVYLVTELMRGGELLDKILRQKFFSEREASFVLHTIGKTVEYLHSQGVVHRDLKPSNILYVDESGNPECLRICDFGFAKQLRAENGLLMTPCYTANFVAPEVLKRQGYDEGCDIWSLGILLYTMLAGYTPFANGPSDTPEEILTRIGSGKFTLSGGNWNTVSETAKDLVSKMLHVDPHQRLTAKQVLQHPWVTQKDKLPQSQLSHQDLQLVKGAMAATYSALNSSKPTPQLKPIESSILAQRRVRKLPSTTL
# Chain of STE20-like serine/threonine-protein kinase (Homo sapiens) (Q9H2G2 whole entry, looked up): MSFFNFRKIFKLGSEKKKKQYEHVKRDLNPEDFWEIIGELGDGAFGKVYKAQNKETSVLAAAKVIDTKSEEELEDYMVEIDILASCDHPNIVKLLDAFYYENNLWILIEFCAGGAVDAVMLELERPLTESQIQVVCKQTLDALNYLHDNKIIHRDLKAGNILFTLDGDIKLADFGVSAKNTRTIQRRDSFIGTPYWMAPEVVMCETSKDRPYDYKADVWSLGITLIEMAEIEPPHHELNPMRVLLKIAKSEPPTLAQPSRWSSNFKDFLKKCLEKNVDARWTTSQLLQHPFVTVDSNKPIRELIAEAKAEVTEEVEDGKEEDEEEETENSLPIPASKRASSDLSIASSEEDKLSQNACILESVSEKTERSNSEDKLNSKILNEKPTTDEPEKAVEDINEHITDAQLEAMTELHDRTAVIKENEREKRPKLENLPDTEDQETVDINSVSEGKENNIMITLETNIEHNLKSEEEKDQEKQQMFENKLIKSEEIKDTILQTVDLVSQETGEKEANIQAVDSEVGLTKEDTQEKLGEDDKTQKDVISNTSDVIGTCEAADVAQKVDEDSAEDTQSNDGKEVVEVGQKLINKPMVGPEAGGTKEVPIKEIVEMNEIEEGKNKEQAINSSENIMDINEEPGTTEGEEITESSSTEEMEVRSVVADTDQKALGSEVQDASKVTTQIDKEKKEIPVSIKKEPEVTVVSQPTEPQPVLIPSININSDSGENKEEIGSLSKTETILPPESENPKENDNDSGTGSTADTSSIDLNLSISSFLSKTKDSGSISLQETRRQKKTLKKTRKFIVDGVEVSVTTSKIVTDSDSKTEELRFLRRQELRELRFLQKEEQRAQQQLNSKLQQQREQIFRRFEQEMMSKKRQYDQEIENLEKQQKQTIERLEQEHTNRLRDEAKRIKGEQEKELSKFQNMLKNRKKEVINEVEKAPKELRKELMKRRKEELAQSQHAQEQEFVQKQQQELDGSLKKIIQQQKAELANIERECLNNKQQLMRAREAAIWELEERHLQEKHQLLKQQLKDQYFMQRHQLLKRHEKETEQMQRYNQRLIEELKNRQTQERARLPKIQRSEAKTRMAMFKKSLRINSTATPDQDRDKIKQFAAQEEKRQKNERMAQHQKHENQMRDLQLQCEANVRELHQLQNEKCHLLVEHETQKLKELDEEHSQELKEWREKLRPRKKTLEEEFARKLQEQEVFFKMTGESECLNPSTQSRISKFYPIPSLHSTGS
# Chain of Rhodopsin kinase GRK1 (Homo sapiens) (Q15835 whole entry): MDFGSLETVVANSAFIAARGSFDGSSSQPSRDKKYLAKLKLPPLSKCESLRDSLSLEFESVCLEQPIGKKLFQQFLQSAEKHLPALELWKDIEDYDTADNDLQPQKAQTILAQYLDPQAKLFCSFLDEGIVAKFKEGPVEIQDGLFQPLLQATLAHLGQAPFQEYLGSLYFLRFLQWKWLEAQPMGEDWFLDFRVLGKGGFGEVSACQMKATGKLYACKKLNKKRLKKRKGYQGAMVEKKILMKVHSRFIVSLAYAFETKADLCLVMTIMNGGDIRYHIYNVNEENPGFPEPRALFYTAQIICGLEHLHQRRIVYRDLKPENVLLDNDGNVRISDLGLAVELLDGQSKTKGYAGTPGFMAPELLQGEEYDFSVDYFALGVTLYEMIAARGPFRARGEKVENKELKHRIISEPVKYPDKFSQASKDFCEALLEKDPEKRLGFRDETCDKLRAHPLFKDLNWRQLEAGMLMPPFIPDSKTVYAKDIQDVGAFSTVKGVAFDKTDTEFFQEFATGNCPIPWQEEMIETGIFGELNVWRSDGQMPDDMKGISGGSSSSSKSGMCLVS
# Chain of Serine/threonine-protein kinase 26 (Homo sapiens) (Q9P289 2-416 limits assumed): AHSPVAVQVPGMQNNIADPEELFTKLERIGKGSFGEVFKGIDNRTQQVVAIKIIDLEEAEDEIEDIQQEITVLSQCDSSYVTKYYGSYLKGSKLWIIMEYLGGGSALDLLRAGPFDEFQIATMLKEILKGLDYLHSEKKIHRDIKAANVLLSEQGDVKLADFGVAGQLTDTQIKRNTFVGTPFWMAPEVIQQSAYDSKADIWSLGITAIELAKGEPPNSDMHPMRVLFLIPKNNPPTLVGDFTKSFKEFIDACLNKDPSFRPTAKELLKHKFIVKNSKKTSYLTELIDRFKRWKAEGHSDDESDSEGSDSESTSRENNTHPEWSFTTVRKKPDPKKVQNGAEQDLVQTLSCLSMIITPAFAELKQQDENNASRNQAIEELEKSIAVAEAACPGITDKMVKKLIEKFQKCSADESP
# Chain of D(3) dopamine receptor (Homo sapiens) (P35462 whole entry): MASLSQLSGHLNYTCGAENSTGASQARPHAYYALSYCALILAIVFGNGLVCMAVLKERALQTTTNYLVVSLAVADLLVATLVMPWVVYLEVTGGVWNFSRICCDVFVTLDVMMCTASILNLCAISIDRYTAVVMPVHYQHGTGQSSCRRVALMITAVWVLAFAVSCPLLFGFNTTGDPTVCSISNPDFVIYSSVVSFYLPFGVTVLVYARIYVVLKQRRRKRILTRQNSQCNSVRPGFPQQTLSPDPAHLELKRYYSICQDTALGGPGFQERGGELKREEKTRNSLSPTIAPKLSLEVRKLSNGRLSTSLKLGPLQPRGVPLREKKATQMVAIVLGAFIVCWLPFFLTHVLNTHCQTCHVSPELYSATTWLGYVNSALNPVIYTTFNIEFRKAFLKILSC
# Chain of Tyrosine-protein kinase receptor Tie-1 (Homo sapiens) (P35590 whole entry, canonical isoform): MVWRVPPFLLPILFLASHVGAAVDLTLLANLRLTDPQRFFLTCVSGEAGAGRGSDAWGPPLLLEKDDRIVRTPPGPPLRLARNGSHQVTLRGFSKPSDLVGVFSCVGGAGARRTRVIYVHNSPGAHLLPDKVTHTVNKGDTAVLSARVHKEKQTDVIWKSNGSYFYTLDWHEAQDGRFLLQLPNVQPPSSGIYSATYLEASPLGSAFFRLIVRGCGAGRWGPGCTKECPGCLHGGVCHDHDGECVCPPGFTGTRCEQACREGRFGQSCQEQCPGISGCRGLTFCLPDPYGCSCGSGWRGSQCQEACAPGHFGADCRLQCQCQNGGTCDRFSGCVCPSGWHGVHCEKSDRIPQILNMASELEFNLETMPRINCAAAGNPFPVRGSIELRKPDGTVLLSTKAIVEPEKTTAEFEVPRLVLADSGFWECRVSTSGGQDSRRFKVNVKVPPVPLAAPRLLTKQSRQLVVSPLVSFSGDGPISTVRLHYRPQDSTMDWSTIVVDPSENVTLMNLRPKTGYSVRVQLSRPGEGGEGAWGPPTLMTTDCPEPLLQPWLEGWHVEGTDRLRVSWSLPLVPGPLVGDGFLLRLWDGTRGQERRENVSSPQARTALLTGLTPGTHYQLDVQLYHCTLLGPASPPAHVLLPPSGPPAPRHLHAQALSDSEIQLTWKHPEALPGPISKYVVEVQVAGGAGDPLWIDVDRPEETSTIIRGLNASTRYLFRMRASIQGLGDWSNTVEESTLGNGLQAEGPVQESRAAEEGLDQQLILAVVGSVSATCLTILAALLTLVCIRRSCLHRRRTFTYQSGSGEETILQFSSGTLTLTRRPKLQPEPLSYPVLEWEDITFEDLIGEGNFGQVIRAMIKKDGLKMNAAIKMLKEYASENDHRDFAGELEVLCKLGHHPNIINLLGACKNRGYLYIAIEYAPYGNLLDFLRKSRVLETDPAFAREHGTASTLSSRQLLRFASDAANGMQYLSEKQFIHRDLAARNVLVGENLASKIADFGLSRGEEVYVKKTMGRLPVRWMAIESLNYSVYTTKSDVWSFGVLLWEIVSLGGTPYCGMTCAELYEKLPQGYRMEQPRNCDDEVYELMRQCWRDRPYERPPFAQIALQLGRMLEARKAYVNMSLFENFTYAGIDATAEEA
# Chain of Serine/threonine-protein kinase 38 (Homo sapiens) (Q15208 2-465 limits assumed): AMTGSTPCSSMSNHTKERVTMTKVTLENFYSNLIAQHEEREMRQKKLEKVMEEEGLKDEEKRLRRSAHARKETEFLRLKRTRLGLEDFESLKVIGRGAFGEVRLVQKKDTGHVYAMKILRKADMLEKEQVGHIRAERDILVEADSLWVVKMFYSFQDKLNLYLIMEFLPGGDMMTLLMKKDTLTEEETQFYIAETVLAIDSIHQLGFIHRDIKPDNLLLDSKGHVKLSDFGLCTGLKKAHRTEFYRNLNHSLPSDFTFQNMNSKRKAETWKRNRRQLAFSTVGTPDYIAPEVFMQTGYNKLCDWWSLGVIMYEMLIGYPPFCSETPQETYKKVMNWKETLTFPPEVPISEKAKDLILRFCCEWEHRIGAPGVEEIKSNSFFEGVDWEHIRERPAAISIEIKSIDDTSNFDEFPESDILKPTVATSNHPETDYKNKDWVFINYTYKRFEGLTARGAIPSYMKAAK
compound,measurement,setting,value
CN(C)c1ncnc(-c2ccc3nc(Nc4cc(CN5CCN(C(=O)CC(F)(F)F)CC5)ccn4)[nH]c3c2)c1Cl [BAY-440],residual activity,[1]; [46],100%
same,residual activity,[2]; [46],88%
same,residual activity,[3]; [46],86%
same,residual activity,[4]; [46],100%
same,residual activity,[5]; [46],100%
same,residual activity,[6]; [46],98%
same,residual activity,[7]; [46],98%
same,residual activity,[8]; [46],53%
same,residual activity,[9]; [46],90%
same,residual activity,[10]; [46],100%
same,residual activity,[11]; [46],94%
same,residual activity,[12]; [46],100%
same,residual activity,[13]; [46],100%
same,residual activity,[14]; [46],85%
same,residual activity,[15]; [46],43%
same,residual activity,[16]; [46],89%
same,inhibition,[17],4.42%
same,residual activity,[18]; [46],91%
same,residual activity,[19]; [46],74%
same,residual activity,[20]; [46],66%
same,residual activity,[21]; [46],100%
same,residual activity,[22]; [46],96%
same,residual activity,[23]; [46],88%
same,residual activity,[24]; [46],61%
same,residual activity,[25]; [46],100%
same,residual activity,[26]; [46],100%
same,residual activity,[27]; [46],100%
same,residual activity,[28]; [46],90%
same,inhibition,[29],30.1%
same,residual activity,[30]; [46],68%
same,residual activity,[31]; [46],80%
same,residual activity,[32]; [46],49%
same,residual activity,[33]; [46],85%
same,residual activity,[34]; [46],100%
same,residual activity,[35]; [46],80%
same,residual activity,[36]; [46],100%
same,residual activity,[37]; [46],90%
same,residual activity,[38]; [46],24%
same,residual activity,[39]; [46],95%
same,residual activity,[40]; [46],61%
same,residual activity,[41]; [46],73%
same,residual activity,[42]; [46],81%
same,residual activity,[43]; [46],100%
same,residual activity,[44]; [46],53%
same,residual activity,[45]; [46],100%
C[C@H](c1ccnc(Nc2nc3ccc(-c4cc(N(C)C)ncn4)cc3[nH]2)c1)N1CCN(C(=O)CC(F)(F)F)CC1 [BAY-985],residual activity,[1]; [47],100%
same,residual activity,[2]; [47],96%
same,residual activity,[3]; [47],100%
same,residual activity,[4]; [47],100%
same,residual activity,[5]; [47],100%
same,residual activity,[6]; [47],83%
same,residual activity,[7]; [47],82%
same,residual activity,[8]; [47],80%
same,residual activity,[9]; [47],90%
same,residual activity,[10]; [47],100%
same,residual activity,[11]; [47],94%
same,residual activity,[12]; [47],93%
same,residual activity,[13]; [47],93%
same,residual activity,[14]; [47],100%
same,residual activity,[15]; [47],100%
same,residual activity,[16]; [47],100%
same,inhibition,[17],30.4%
same,residual activity,[18]; [47],100%
same,residual activity,[19]; [47],100%
same,residual activity,[20]; [47],85%
same,residual activity,[21]; [47],96%
same,residual activity,[22]; [47],100%
same,residual activity,[23]; [47],100%
same,residual activity,[24]; [47],99%
same,residual activity,[25]; [47],100%
same,residual activity,[26]; [47],99%
same,residual activity,[27]; [47],81%
same,residual activity,[28]; [47],64%
same,inhibition,[29],35.5%
same,residual activity,[30]; [47],100%
same,residual activity,[31]; [47],99%
same,residual activity,[32]; [47],97%
same,residual activity,[33]; [47],100%
same,residual activity,[34]; [47],100%
same,residual activity,[35]; [47],100%
same,residual activity,[36]; [47],100%
same,residual activity,[37]; [47],70%
same,residual activity,[38]; [47],2.4%
same,residual activity,[39]; [47],96%
same,residual activity,[40]; [47],100%
same,residual activity,[41]; [47],100%
same,residual activity,[42]; [47],60%
same,residual activity,[43]; [47],100%
same,residual activity,[44]; [47],43%
same,residual activity,[45]; [47],100%
